Here are results for two compounds from patent US8765717B2 (Monte Verde S.A., priority 2008, dated 2014).

In series [1] the test system is patients suffering from primary hip or knee arthritis (I, II or III). As to the kind of experiment: Clinical trial: Lequesne algo-functional index of severity. The note with it: for Decrease in the Lequesne scale in the 25% of patients with enhanced recovery / Decrease in the Lequesne scale in the 25% of patients with enhanced recovery (percent): 25% of the patients. The series is classed as in vivo, humans. The protocol: (§1) Data from a clinical trial with humans is provided herein. The trial was performed with three arms, at random and blind, of patients suffering from different degrees of primary hip or knee arthritis (I, II or III). […] Pain and joint function performance was checked every fifteen days by using the pain VAS and the Lequesne algo-functional index of severity. The VAS assesses the pain in the knee by a visual scale of 100 mm with a total of 10 divisions wherein 0 means no pain and 10 means the deepest pain. […] The severity index is given by the addition of the scores obtained in each item, wherein 24 is the maximum possible score. The higher the index, the more severe is the clinical picture.

For series [2] the test system is unchanged. As to the kind of experiment: Clinical trial: pain VAS. The note with it: check-up visits every fifteen days. The series is classed as in vivo, humans. The protocol: as §1
The conditions of series [3]: 37° C.; cited from earlier work.
The conditions of series [4]: patients in clinical trials; cited from earlier work.

Turning to `N[C@H]1C(O)O[C@H](CO)[C@@H](O)[C@@H]1O` (stereo partly drawn) [glucosamine, 2-amin-2 desoxy-alpha-D-glucose], in series [1] (90 days oral treatment), the “Decrease in the Lequesne scale in the 25% of patients with enhanced recovery” value was found to be 3.75 scores and the “Decrease in the Lequesne scale in the 25% of patients with enhanced recovery (percent)” value was 32%. Also, the “Average improvement in the Lequesne index in 50% of the patients” value in series [1] (50% of the patients, 90 days oral treatment) was found to be 1.5 scores. Besides, in series [1] (90 days, single daily oral dose, 1,500 mg glucosamine sulphate and/or 15 mg meloxicam), the “Lequesne scale (Algo-functional index) average decrease” value came to 11%. Also, the “Time after starting treatment at which VAS value showed the highest reduction” value in series [2] was 30 days. The pKa (as a rule, the pH at which an ionisable group is half protonated) in series [3] was 6.91.
Take `Cc1cnc(NC(=O)C2=C(O)c3ccccc3S(=O)(=O)N2C)s1` [meloxicam, (8E)-8-[hydroxy-[(5-methyl-1,3-thiazol-2-yl)amino]methylidene]-9-methyl-10,10-dioxo-10λ^6-thia-9-azabicyclo[4.4.0]deca-1,3,5-trien-7-one]: in series [1] (90 days oral treatment), the “Decrease in the Lequesne scale in the 25% of patients with enhanced recovery” value is listed as 4.5 scores and the “Decrease in the Lequesne scale in the 25% of patients with enhanced recovery (percent)” value was 38%. For the same compound, the “Occurrence of adverse gastrointestinal events (bleeding, perforation or ulcers) versus other nonsteroidal anti-inflammatory drugs” value in series [4] is “less frequent”. The “Time after starting treatment at which VAS value showed the highest reduction” value in series [2] was found to be 15 days.
